Patent US10004816B2, “X-ray imaging contrast media with low iodine concentration and X-ray imaging process” (GE HEALTHCARE AS, priority 2012, dated 2018)
One block for each compound: values may come before it.

What was measured:
[1] = Average cluster size in solution; assay type: physicochemical
Text: By intermolecular interactions the contrast media molecules form clusters that are continuously formed and broken up and the average cluster size may be described by a formation/destruction equilibrium. Ioforminol has an increased tendency to form clusters and in water at high concentration an average size of 4 molecules per cluster is predominating, whereas Iodixanol under similar conditions have a mean cluster size of 2.5 molecules. […] The cluster size affects the osmolality of the solution and larger clusters are reflected in a lower osmolality. The non-ideal behaviour of high concentration solutions permits the addition of physiological electrolytes to achieve isotonicity. […] This non-ideal behaviour persistent also at low concentrations enables the addition of physiological electrolytes to the current formulations.

[2] = Liver signal to noise ratio (SNR), venous phase contrast enhanced abdominal CT; assay type: in vivo, minipig; settings: for FBP [SNR]: 320 mg I/ml, 120 kVp, SoC
Method: (§1) Three studies were carried out in two anaesthetized minipigs (abdominal maximum and minimum diameters approximately 36 cm and 20 cm, respectively). Minipigs were imaged on a Discovery CT 750 HD. Compositions of 160 mg I/ml and 200 mg I/ml Ioforminol were prepared. The 160 mg I/ml formulation included a sodium concentration of 82 mM and a calcium concentration of 0.9 mM. The 200 mg I/ml formulation included a sodium concentration of 73 mM and a calcium concentration of 0.8 mM. For human formulations the calcium concentration is likely to be slightly lower, providing an optimized Na/Ca ratio of 110-120. The Ioforminol formulations (2 ml/kg) were injected at a rate of 2 ml/s into a jugular vein, followed by a 20 ml saline flush at the same injection rate.
(§2) For comparison, Ioforminol at a concentration of 320 mg I/ml and 120 kVp tube voltage was administered to represent the current standard of care (SoC) imaging in man. SoC scans were compared to scans performed with either […] or 200 mg I/ml contrast concentration in the same pig, with at least a 2 day washout period between each scanning session. Automated tube current modulation was used with a noise index level of 23 (SoC) and a tube rotation time of 0.7 s. Post-contrast CT images were acquired during the arterial phase, the portal venous phase, the venous phase and the late phase. Image reconstruction was done by (1) FBP, (2) ASiR 60% and (3) Veo. Pixel size was 0.703 mm×0.703 mm×2.5 mm.
(§3) Iodine contrast enhancement was assessed by measuring the mean x-ray attenuation values (in HUs) within circular region of interests (ROIs). ROIs were placed in both aorta and muscle (quadratus lumborum) in arterial phase images and in the liver in venous phase images. See Tables 1-6 and corresponding FIGS. 1-6. The aorta contrast to noise ratio (CNR) was calculated as the difference in signal between the aorta and muscle, divided by the noise in muscle. The liver signal to noise ratio (SNR) was calculated as the ratio of the mean liver attenuation and the standard deviation (SD).

[3] = Aorta contrast to noise ratio (CNR), arterial phase contrast enhanced abdominal CT; assay type: in vivo, minipig; settings: for FBP [CNR]: 320 mg I/ml, 120 kVp, SoC
Method: as §1, §2, §3

[4] = Viscosity of Ioforminol compositions; assay type: physicochemical; settings: 20° C.
Method: For X-ray diagnostic compositions which are administered by injection or infusion, the desired upper limit for the solution's viscosity at ambient temperature (20° C.) is generally about 30 mPas, however viscosities of up to 50 to 60 mPas and even more than 60 mPas are seen. With the low concentration of iodine in the composition of the invention the viscosity is below 10 mPas at 20° C., and this is even considerably lower at the lower end of the iodine concentration range. […] For comparison a 320 mg I/ml composition of Ioforminol has a viscosity of 28 mPas (at 20° C.). Particularly, for a 160 mg I/ml composition of Ioforminol the viscosity is only 2.9 mPas (at 20° C.), and for a 200 mg I/ml composition the viscosity is 4.7 mPas (20° C.). […] Such low viscosity has the advantage that the composition is easy to administer and the administration can be done more quickly with a higher volume per time unit, particularly as the injection pressure needed is considerably lower than with compositions with higher viscosities. The lower viscosity enables a reduction in the needle- or catheter diameter down to about 63% of the original diameter without effecting flow rate or injection pressure. As a consequence a hand-held syringe can be used rather than an autoinjector.

[5] = 160 mg I/ml, 80 kVp, CTDIvol 5.2 mGy, FIG. 5
[6] = 200 mg I/ml, 80 kVp, CTDIvol 6.9 mGy, FIG. 4
[7] = 200 mg I/ml, 100 kVp, CTDIvol 5.2 mGy, FIG. 6
[8] = 160 mg I/ml, 80 kVp, CTDIvol 5.2 mGy, FIG. 2
[9] = 200 mg I/ml, 80 kVp, CTDIvol 6.9 mGy, FIG. 1
[10] = 200 mg I/ml, 100 kVp, CTDIvol 5.2 mGy, FIG. 3

SMILES: CC(=O)N(CC(O)CN(C(C)=O)c1c(I)c(C(=O)NCC(O)CO)c(I)c(C(=O)NCC(O)CO)c1I)c1c(I)c(C(=O)NCC(O)CO)c(I)c(C(=O)NCC(O)CO)c1I (centres unmarked) [Iodixanol, iodixanol, reference compound]
average cluster size ([1]; in water at high concentration): 2.5 molecules per cluster
average cluster size ([1]; low concentrations): no longer present

average cluster size ([1]; in water at high concentration): 4 molecules per cluster
average cluster size ([1]; low concentrations): 2-3 molecules per cluster
viscosity ([4]; 160 mg I/ml composition): 2.9 mPas
viscosity ([4]; 200 mg I/ml composition): 4.7 mPas
viscosity ([4]; 320 mg I/ml composition): 28 mPas
SMILES: O=CN(CC(O)CN(C=O)c1c(I)c(C(=O)NCC(O)CO)c(I)c(C(=O)NCC(O)CO)c1I)c1c(I)c(C(=O)NCC(O)CO)c(I)c(C(=O)NCC(O)CO)c1I (centres unmarked) [Ioforminol, 5,5′-((2-hydroxypropane-1,3-diyl)bis(formylazanediyl))bis(N1,N3-bis(2,3-dihydroxypropyl)-2,4,6-triiodoisophthalamide)]
ASiR 60% [SNR] [2, 5]: 7.7
Veo [SNR] [2, 5]: 15.1
ASiR 60% [SNR] [2, 6]: 9.5
Veo [SNR] [2, 6]: 16.7
ASiR 60% [SNR] [2, 7]: 7.9
Veo [SNR] [2, 7]: 13.1
FBP [SNR] ([2]; CTDIvol 7.4 mGy, FIG. 5 and 6): 8.2
FBP [SNR] ([2]; CTDIvol 9.8 mGy, FIG. 4): 7.7
ASiR 60% [CNR] [3, 8]: 15.1
Veo [CNR] [3, 8]: 32.1
ASiR 60% [CNR] [3, 9]: 23
Veo [CNR] [3, 9]: 46.7
ASiR 60% [CNR] [3, 10]: 17.7
Veo [CNR] [3, 10]: 33.2
FBP [CNR] ([3]; CTDIvol 7.4 mGy, FIG. 2 and 3): 16.9
FBP [CNR] ([3]; CTDIvol 9.8 mGy, FIG. 1): 17.7
